Assay results from patent EP4650002A1 (Ludwig-Maximilians-Universität, priority 2024, dated 2025).

Biological target: T1, human TLX (Homo sapiens, UniProt Q9Y466)
T1 construct: expressed in transfected cells; host or cells: HEK293T
Experiment: Gal4 hybrid reporter gene assay (TLX modulation)
Type: cell-based
Set-up: key to relative reporter activity: fraction of DMSO control (DMSO = 1)
Settings: for relative reporter activity: DMSO control = 1; for EC50: Gal4-TLX hybrid reporter in HEK293T cells, 16 h incubation
Protocol: In the Tables, the TLX relative reporter activity is expressed as EC50 (in µM) for each listed compound. "EC50" refers to a measure of the concentration of a compound which induces a biological response halfway between the baseline and maximum after a specified exposure time. […] The EC50 is measured via a hybrid reporter gene assay, employing the transfection of a reporter (firefly luciferase with Gal4 response element), a control gene (Renilla luciferase), a transcriptional activator (Gal4-VP16) and a hybrid receptor consisting of the TLX ligand binding domain (LBD) and the Gal4 DNA binding domain (DBD).
Hybrid reporter gene assays. […] After 24 h, medium was changed to Opti-MEM without supplements and cells were transiently transfected using Lipofectamine LTX reagent (Invitrogen, Carlsbad, CA, USA) according to the manufacturer's protocol. Five hours after transfection, cells were incubated with the test compounds in Opti-MEM supplemented with penicillin (100 U/mL), streptomycin (100 µg/mL) and 0.1% DMSO for 16 h before luciferase activity was measured using the Dual-Glo Luciferase Assay System (Promega) according to the manufacturer's protocol on a Tecan Spark luminometer (Tecan Deutschland GmbH, Crailsheim, Germany). Firefly luminescence was divided by Renilla luminescence and multiplied by 1000 resulting in relative light units (RLU) to normalize for transfection efficiency and cell growth. Fold activation was obtained by dividing the mean RLU of test compound by the mean RLU of the untreated control. All samples were tested in at least three biologically independent experiments in duplicates. For dose-response curve fitting and calculation of EC50 values, the equation "[Agonist] vs. response -- Variable slope (four parameters)" was used in GraphPad Prism (version 7.00, GraphPad Software, La Jolla, CA, USA).

[1] = minimal remaining or maximum reporter activity after treatment, in brackets below the EC50, <1 agonism, >1 inverse agonism

T1 sequence (Q9Y466 155-383 limits assumed): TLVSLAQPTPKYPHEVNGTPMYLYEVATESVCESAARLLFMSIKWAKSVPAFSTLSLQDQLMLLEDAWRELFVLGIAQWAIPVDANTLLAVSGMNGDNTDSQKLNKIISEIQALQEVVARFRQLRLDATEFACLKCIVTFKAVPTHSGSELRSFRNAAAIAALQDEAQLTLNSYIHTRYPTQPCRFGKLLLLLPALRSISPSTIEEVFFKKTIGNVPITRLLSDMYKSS

EC50 [µM]	relative reporter activity [1]	SMILES	also measured
		Cc1cn(-c2cc(NC(=O)c3cccc4ccccc34)cc(C(F)(F)F)c2)cn1 [compound 6, N-(3-(4-methyl-1H-imidazol-1-yl)-5-(trifluoromethyl)phenyl)-1-naphthamide]	relative reporter activity (at 3 µM): (0.79±0.03 at 3 µM)
1.1 ± 0.3	0.57±0.04	CCOc1cc(C(=O)Nc2cc(-n3cnc(C)c3)cc(C(F)(F)F)c2)c2ccccc2n1 [compound 8, 2-ethoxy-N-(3-(4-methyl-1H-imidazol-1-yl)-5-(trifluoromethyl)phenyl)quinoline-4-carboxamide]	
		Cc1cn(-c2cc(NC(=O)c3ccncc3)cc(C(F)(F)F)c2)cn1 [compound 11, N-(3-(4-methyl-1H-imidazol-1-yl)-5-(trifluoromethyl)phenyl)isonicotinamide]	relative reporter activity (at 20 µM): (0.41±0.05 at 20 µM)
		Cc1cn(-c2cc(NC(=O)c3ccnc(Cl)c3)cc(C(F)(F)F)c2)cn1 [compound 12, 2-chloro-N-(3-(4-methyl-1H-imidazol-1-yl)-5-(trifluoromethyl)phenyl)-isonicotinamide]	relative reporter activity (at 10 µM): (0.71±0.05 at 10 µM)
8 ± 1	0.38±0.08	Cc1cn(-c2cc(NC(=O)c3ccccc3)cc(C(F)(F)F)c2)cn1 [compound 14, N-(3-(4-methyl-1H-imidazol-1-yl)-5-(trifluoromethyl)phenyl)benzamide]	
2.3 ± 0.3	0.41±0.05	Cc1cn(-c2cc(NC(=O)c3ccc(Cl)cc3)cc(C(F)(F)F)c2)cn1 [compound 15, 4-chloro-N-(3-(4-methyl-1H-imidazol-1-yl)-5-(trifluoromethyl)phenyl)benzamide]	
2.1 ± 0.9	0.33±0.12	Cc1cn(-c2cc(NC(=O)c3ccc(Cl)c(Cl)c3)cc(C(F)(F)F)c2)cn1 [compound 16, 3,4-dichloro-N-(3-(4-methyl-1H-imidazol-1-yl)-5-(trifluoromethyl)phenyl)-benzamide]	
5.2 ± 0.4	0.42±0.03	COc1ccc(C(=O)Nc2cc(-n3cnc(C)c3)cc(C(F)(F)F)c2)cc1 [compound 17, 4-methoxy-N-(3-(4-methyl-1H-imidazol-1-yl)-5-(trifluoromethyl)phenyl)benzamide]	
1.4 ± 0.7	0.59±0.06	Cc1ccc(C(=O)Nc2cc(-n3cnc(C)c3)cc(C(F)(F)F)c2)cc1 [compound 18, 4-methyl-N-(3-(4-methyl-1H-imidazol-1-yl)-5-(trifluoromethyl)phenyl)benzamide]	
1.4 ± 0.3	0.21±0.07	Cc1cn(-c2cc(NC(=O)Cc3cccnc3)cc(C(F)(F)F)c2)cn1 [compound 21, N-(3-(4-methyl-1H-imidazol-1-yl)-5-(trifluoromethyl)phenyl)-2-(pyridin-3-yl)acetamide]	
1.8 ± 0.4	0.34±0.11	Cc1cn(-c2cc(NC(=O)c3ccc(Cl)c4ccccc34)cc(C(F)(F)F)c2)cn1 [compound 31, 4-chloro-N-(3-(4-methyl-1H-imidazol-1-yl)-5-(trifluoromethyl)phenyl)-1-naphthamide]	
4.4 ± 0.9		Nc1cc(-n2ccnc2)cc(C(F)(F)F)c1 [compound 33, 3-(1H-imidazol-1-yl)-5-(trifluoromethyl)aniline]	
15 ± 7	0.23±0.15	Nc1cc(-n2cccc2)cc(C(F)(F)F)c1 [compound 34, 3-(1H-pyrrol-1-yl)-5-(trifluoromethyl)aniline]	
2.4 ± 0.9		Nc1cc(-n2cnc3ccccc32)cc(C(F)(F)F)c1 [compound 35, 3-(1H-benzo[d]imidazol-1-yl)-5-(trifluoromethyl)aniline]	
		O=C(Nc1cc(-n2cnc3ccccc32)cc(C(F)(F)F)c1)c1ccnc2ccccc12 [compound 36, N-(3-(1H-benzo[d]imidazol-1-yl)-5-(trifluoromethyl)phenyl)quinoline-4-carboxamide]	relative reporter activity (at 10 µM): (0.24±0.04 at 10 µM
		Cc1cnn(-c2cc(N)cc(C(F)(F)F)c2)c1 [compound 37, 3-(4-methyl-1H-pyrazol-1-yl)-5-(trifluoromethyl)aniline]	relative reporter activity (at 100 µM): (0.48±0.09 at 100 µM)
9.5 ± 4.4	0.43±0.11	Cn1cc(-c2cc(N)cc(C(F)(F)F)c2)cn1 [compound 38, 3-(1-methyl-1H-pyrazol-4-yl)-5-(trifluoromethyl)aniline]	
		Nc1cc(-c2cn[nH]c2)cc(C(F)(F)F)c1 [compound 39, 3-(1H-Pyrazol-4-yl)-5-(trifluoromethyl)aniline]	relative reporter activity (at 50 µM): (0.35±0.06 at 50 µM)

EC50 [µM]	relative reporter activity [1]	SMILES	also measured
3.2 ± 1.2	0.47±0.06	Nc1cc(-c2cnoc2)cc(C(F)(F)F)c1 [compound 40, 3-(isoxazol-4-yl)-5-(trifluoromethyl)aniline]	
4.2 ± 0.9	0.34±0.09	Cc1nn(C)c(C)c1-c1cc(N)cc(C(F)(F)F)c1 [compound 41, 3-(trifluoromethyl)-5-(1,3,5-trimethyl-1H-pyrazol-4-yl)aniline]	
		Cc1noc(C)c1-c1cc(N)cc(C(F)(F)F)c1 [compound 42, 3-(3,5-dimethylisoxazol-4-yl)-5-(trifluoromethyl)aniline]	relative reporter activity (at 10 µM): (0.70±0.07 at 10 µM)
		Cc1cc(-c2cc(N)cc(C(F)(F)F)c2)n[nH]1 [compound 43, 3-(5-methyl-1H-pyrazol-3-yl)-5-(trifluoromethyl)aniline]	relative reporter activity (at 100 µM): (0.29±0.05 at 100 µM)
		Cn1cnc(-c2cc(N)cc(C(F)(F)F)c2)n1 [compound 44, 3-(1-methyl-1H-1,2,4-triazol-3-yl)-5-(trifluoromethyl)aniline]	relative reporter activity (at 100 µM): (0.63±0.04 at 100 µM)
		Cc1cc(-c2cc(N)cc(C(F)(F)F)c2)nn1C [compound 45, 3-(1,5-dimethyl-1H-pyrazol-3-yl)-5-(trifluoromethyl)aniline]	relative reporter activity (at 100 µM): (0.56±0.12 at 100 µM)
11 ± 5	0.20±0.02	Cc1cc(C(=O)Nc2cc(N)cc(C(F)(F)F)c2)nn1C [compound 46, N-(3-amino-5-(trifluoromethyl)phenyl)-1,5-dimethyl-1H-pyrazole-3-carboxamide]	
3.9 ± 1.6	0.49±0.11	Cc1c(-c2cc(N)cc(C(F)(F)F)c2)cnn1C [compound 49, 3-(1,5-dimethyl-1H-pyrazol-4-yl)-5-(trifluoromethyl)aniline]	
		Cc1nc(-c2cc(N)cc(C(F)(F)F)c2)cn1C [compound 50, 3-(1,2-dimethyl-1H-imidazol-4-yl)-5-(trifluoromethyl)aniline]	relative reporter activity (at 100 µM): (0.70±0.06 at 100 µM)
9.1 ± 0.7		Cn1cc(-c2cc(N)cc(C(F)(F)F)c2)c2ccccc21 [compound 51, 3-(1-Methyl-1H-indol-3-yl)-5-(trifluoromethyl)aniline]	
3.5 ± 0.8		Cn1cc(-c2cc(N)cc(C(F)(F)F)c2)c2cccnc21 [compound 52, 3-(1-methyl-1H-pyrrolo[2,3-b]pyridin-3-yl)-5-(trifluoromethyl)aniline]	
		Nc1cc(-c2nccs2)cc(C(F)(F)F)c1 [compound 53, 3-(thiazol-2-yl)-5-(trifluoromethyl)aniline]	relative reporter activity (at 100 µM): (0.63±0.10 at 100 µM)
		Cc1cnc(-c2cc(N)cc(C(F)(F)F)c2)s1 [compound 54, 3-(5-methylthiazol-2-yl)-5-(trifluoromethyl)aniline]	relative reporter activity (at 30 µM): (0.46±0.21 at 30 µM)
		Cc1ccc(-c2cc(N)cc(C(F)(F)F)c2)s1 [compound 55, 3-(5-methylthiophen-2-yl)-5-(trifluoromethyl)aniline]	relative reporter activity (at 30 µM): 2.2±0.6
		Cc1cc(C)c(-c2cc(N)cc(C(F)(F)F)c2)s1 [compound 56, 3-(3,5-dimethylthiophen-2-yl)-5-(trifluoromethyl)aniline]	relative reporter activity (at 50 µM): 3.4±0.3
4.4 ± 1.6		CC(=O)c1ccc(-c2cc(N)cc(C(F)(F)F)c2)s1 [compound 57, 1-(5-(3-amino-5-(trifluoromethyl)phenyl)thiophen-2-yl)ethan-1-one]	
3.5 ± 1.8		COC(=O)c1ccc(-c2cc(N)cc(C(F)(F)F)c2)s1 [compound 58, methyl 5-(3-amino-5-(trifluoromethyl)phenyl)thiophene-2-carboxylate]	
		Cc1cc(-c2cc(N)cc(C(F)(F)F)c2)cs1 [compound 59, 3-(5-methylthiophen-3-yl)-5-(trifluoromethyl)aniline]	relative reporter activity (at 30 µM): 2.8±0.5

SMILES	EC50 [µM]	relative reporter activity [1]	also measured
Cc1cn(-c2cc(NC(=O)c3ccc(C(F)(F)F)cc3)cc(C(F)(F)F)c2)cn1 [compound 19, N-(3-(4-mefhyl-1H-imidazol-1-yl)-5-(trifluoromefhyl)phenyl)-4-(frifluoromethyl)-benzamide]	3.3 ± 1.2	0.59±0.10	
